Experimental data from patent publication EP4491627A1, “SYNTHETIC CA[…] ON CHROMENO[…] AND USE THEREOF” (Consejo Superior De Investigaciones Científicas, priority 2023, dated 2025).

Tested on: primary neuronal cultures
Assay: cAMP assay in primary neuronal cultures
Type: cell-based, Sprague Dawley rats
Details: primary cultures of cortical neurons; Figure 5
Experimental: • Fig. 1. Graphics of the dose-response corresponding to the HTFR (Homogeneous Time Resolved Fluorescence) assays performed with chromenopyrimidines Example 1, Example 2 and Example 3. A) Competition assay snap-CB1; red ligand used at 100 nM; B) Competition assay snap-CB2; red ligand used at 20 nM. • Fig. 2. cAMP (Cyclic adenosine monophosphate) experiments performed with novel chromenopyrimidines (Example 1, Example 2 and Example 3). A) In HEK293 cells transfected with CB1; B) In HEK293 cells transfected with CB2. • Fig. 3. Graphics of the dose-response corresponding to the MAPK (mitogen-activated protein kinase) experiments performed with novel chromenopyrimidines (Example 1, Example 2 and Example 3). A) In HEK293 cells transfected with CB1; B) In HEK293 cells transfected with CB2. • Fig. 4. Graphics of the dose-response corresponding to the β-arrestin2 recruitment assays performed with Example 1, Example 2 and Example 3. A) In HEK293 cells transfected with CB1; B) In HEK293 cells transfected with CB2. • Fig. 5. Graphics of the dose-response corresponding to the cAMP assays performed with Example 1, Example 2 and Example 3 in neurons. • Fig. 6. Graphics of the dose-response of reference cannabinoids ACEA and anandamide in cAMP and MAPK assays in HEK293-CB1 cells. • Fig. 7. […]
In the present invention, cannabinoid affinity was evaluated using Homogeneous Time Resolved Fluorescence (HTFR) binding assays. Cannabinoid activity was assessed using an array of functional assays including cAMP, MAPK and barrestin2 recruitment in CB1 and CB2 transfected HEK293 cells. […]
Two hours before initiating the experiment, HEK-293T cells medium was replaced by serum-starved DMEM medium. […] Readings were performed after 60 min incubation at 25°. Homogeneous time-resolved fluorescence energy transfer (HTRF) measures were performed using the Lance Ultra cAMP kit (PerkinElmer, Waltham, MA, USA). Fluorescence at 665 nm was analysed on a PHERAstar Flagship microplate reader equipped with an HTRF optical module (BMG Lab technologies, Offenburg, Germany). […]

Compound	cannabinoid agonistic activity in primary neuronal cultures using cAMP assays
CCCCCCC(C)(C)c1cc(O)c2c(c1)OC(C)(C)c1cncnc1-2 [Example 1, 8-(1,1-Dimethylheptyl)-5,5-dimethylchromeno[4,3-d]pyrimidin-10-ol]	cannabinoid agonistic activity
CCCCCCC(C)(C)c1cc(OCc2ccccc2)c2c(c1)OC(C)(C)c1cncnc1-2 [Example 3, 10-Benzyloxy-8-(1,1-dimethylheptyl)-5,5-dimethylchromeno[4,3-d]pyrimidine]	cannabinoid agonistic activity
CCCCCCC(C)(C)c1cc(OC)c2c(c1)OC(C)(C)c1cncnc1-2 [Example 2, 8-(1,1-Dimethylheptyl)-10-methoxy-5,5-dimethylchromeno[4,3-d]pyrimidine]	cannabinoid agonistic activity
